Assay [1] in a line: Inhibition of endoplasmic reticulum Alpha-Glucosidase II in rat liver. It is filed as tissue-based.
The next assay has as its system MT4. As to the kind of experiment: Concentration giving 50% inhibition of HIV-1 induced cytopathogenicity in MT-4 cells. The class given is functional, cell-based, Homo sapiens.
The nature of assay [2]: Inhibition of Cellobiase in rat intestinal brush border membranes by D-glucose oxidase-peroxidase method. It is filed as cell membranes, Membrane.
The next assay has as its target T1, Alpha-mannosidase 2C1 (Rattus norvegicus, UniProt P21139).
T1 sequence (P21139 whole entry): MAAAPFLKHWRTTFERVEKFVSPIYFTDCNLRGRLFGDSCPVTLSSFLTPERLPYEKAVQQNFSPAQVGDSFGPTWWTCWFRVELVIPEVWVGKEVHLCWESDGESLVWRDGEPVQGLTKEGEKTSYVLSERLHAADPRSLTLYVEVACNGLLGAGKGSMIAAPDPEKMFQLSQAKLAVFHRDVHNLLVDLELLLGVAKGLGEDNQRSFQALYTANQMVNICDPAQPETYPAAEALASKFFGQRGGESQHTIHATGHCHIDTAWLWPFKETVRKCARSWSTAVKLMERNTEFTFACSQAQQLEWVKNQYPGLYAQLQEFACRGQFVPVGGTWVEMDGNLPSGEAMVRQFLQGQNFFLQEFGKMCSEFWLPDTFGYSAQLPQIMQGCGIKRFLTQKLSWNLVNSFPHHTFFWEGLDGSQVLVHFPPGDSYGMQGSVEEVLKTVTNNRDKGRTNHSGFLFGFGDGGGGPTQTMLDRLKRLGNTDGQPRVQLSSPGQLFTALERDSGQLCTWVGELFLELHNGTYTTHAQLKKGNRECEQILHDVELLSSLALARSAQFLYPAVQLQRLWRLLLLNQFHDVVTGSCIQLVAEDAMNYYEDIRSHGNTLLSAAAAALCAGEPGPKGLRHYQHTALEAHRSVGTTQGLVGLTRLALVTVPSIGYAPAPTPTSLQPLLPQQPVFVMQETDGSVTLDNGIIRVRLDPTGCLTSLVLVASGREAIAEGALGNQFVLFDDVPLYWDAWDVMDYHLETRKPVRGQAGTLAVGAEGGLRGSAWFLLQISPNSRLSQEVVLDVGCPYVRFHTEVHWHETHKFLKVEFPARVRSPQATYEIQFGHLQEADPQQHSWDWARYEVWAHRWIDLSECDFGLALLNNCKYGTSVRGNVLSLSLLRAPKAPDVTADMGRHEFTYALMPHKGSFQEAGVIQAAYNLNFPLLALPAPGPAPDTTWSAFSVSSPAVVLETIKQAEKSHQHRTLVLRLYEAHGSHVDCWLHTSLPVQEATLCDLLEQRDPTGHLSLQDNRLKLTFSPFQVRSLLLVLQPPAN
As to the kind of experiment: Inhibition of soluble Alpha-mannosidase II in rat liver. The class given is tissue-based.

The nature of assay [3]: Inhibition of lysosomal Alpha-Glucosidase II in rat liver.
Assay [4] can be described thus: Competitive Inhibitory activity against Endoplasmic reticulum Alpha-Glucosidase II. The arrangement: species or system Rattus norvegicus.
Another assay has as its target T2, Trehalase (Rattus norvegicus, UniProt O70282).
T2 sequence (O70282 whole entry): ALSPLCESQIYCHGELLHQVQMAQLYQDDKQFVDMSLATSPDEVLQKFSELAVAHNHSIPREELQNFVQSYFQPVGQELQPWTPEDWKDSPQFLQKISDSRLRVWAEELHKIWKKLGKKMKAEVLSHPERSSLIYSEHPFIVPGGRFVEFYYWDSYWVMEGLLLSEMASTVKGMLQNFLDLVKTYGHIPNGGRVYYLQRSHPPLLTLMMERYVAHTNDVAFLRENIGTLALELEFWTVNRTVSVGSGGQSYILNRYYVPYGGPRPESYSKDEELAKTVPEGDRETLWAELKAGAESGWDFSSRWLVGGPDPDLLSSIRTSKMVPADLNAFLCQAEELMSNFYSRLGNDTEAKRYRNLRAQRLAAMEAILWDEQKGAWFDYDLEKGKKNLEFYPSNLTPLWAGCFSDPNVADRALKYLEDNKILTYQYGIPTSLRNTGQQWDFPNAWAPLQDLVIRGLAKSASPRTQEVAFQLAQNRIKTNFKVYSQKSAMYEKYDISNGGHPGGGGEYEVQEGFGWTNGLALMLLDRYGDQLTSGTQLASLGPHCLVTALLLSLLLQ
Description: Inhibition of Glycosidases (trehalase)in rat intestinal brush border membranes by D-glucose oxidase-peroxidase method. It is filed as cell membranes, Membrane.

The target in assay [5] is Lactase/phlorizin hydrolase (Rattus norvegicus, UniProt Q02401). As to the kind of experiment: Inhibition of Glycosidases (lactase)in rat intestinal brush border membranes by D-glucose oxidase-peroxidase method. It is filed as cell membranes, Membrane.
Assay [6] addresses T3, Sucrase-isomaltase, intestinal (Rattus norvegicus, UniProt P23739). As to the kind of experiment: Inhibition of Sucrase in rat intestinal brush border membranes by D-glucose oxidase-peroxidase method. The class given is cell membranes, Membrane.
For assay [7], the target named is T3, Sucrase-isomaltase, intestinal. As to the kind of experiment: Inhibition of Glycosidases (isomaltase)in rat intestinal brush border membranes by D-glucose oxidase-peroxidase method. The class given is cell membranes, Membrane.

Converted amounts (≈) assume the structure as drawn.

Lactase/phlorizin hydrolase, sequence (Q02401 868-1928 limits assumed): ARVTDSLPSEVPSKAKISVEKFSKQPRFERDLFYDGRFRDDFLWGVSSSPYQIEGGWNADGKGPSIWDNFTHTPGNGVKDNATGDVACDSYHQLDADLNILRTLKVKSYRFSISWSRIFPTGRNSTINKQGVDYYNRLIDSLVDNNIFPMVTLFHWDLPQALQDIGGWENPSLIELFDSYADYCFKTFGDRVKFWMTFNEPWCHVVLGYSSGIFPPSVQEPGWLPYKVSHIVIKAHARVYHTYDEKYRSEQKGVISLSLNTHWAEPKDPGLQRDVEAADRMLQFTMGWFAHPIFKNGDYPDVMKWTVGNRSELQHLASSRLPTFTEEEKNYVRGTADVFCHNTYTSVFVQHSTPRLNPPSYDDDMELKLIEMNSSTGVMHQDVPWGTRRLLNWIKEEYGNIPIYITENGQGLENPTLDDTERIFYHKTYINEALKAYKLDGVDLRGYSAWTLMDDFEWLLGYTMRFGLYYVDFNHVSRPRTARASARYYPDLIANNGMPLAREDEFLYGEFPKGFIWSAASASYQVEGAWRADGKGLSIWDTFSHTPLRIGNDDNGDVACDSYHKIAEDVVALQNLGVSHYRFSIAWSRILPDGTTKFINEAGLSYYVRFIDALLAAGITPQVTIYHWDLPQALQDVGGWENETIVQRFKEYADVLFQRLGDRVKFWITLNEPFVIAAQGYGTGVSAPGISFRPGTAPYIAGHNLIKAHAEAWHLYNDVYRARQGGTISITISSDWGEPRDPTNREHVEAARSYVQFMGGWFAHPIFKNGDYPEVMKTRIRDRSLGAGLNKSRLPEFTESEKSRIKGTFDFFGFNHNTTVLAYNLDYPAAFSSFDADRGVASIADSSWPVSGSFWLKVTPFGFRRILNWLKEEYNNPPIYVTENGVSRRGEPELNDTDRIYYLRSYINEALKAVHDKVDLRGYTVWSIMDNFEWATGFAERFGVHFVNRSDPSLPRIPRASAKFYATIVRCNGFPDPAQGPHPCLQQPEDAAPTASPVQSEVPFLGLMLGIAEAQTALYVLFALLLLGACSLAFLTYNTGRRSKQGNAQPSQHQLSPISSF
T3 sequence (P23739 1-1013 limits assumed): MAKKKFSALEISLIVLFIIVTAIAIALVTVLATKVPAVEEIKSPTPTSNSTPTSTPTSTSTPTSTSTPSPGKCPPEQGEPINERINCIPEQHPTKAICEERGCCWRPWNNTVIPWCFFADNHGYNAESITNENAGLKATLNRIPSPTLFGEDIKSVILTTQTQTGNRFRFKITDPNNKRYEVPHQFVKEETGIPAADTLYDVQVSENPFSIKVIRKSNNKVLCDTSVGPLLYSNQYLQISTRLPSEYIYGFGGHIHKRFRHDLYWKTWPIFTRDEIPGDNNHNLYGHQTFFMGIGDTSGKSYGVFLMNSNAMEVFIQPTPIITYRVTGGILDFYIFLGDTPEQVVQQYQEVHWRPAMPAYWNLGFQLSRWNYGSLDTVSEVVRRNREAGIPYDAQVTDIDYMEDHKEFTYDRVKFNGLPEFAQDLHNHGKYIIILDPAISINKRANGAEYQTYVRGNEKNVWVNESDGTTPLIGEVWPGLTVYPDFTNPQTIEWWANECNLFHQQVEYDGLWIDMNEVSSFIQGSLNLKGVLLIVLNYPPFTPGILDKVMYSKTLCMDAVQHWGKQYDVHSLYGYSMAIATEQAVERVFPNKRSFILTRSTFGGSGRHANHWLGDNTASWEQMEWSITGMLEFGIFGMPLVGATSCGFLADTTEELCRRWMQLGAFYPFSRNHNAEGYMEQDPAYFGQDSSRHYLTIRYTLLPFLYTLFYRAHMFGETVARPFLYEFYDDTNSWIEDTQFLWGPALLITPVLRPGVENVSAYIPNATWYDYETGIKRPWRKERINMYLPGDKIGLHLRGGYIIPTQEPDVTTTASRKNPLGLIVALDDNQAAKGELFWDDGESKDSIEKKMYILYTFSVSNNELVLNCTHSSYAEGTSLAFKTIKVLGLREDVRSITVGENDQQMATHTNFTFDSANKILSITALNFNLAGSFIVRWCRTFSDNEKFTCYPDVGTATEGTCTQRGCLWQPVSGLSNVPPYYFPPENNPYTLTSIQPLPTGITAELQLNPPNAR
T3 sequence (P23739 1014-1841 limits assumed): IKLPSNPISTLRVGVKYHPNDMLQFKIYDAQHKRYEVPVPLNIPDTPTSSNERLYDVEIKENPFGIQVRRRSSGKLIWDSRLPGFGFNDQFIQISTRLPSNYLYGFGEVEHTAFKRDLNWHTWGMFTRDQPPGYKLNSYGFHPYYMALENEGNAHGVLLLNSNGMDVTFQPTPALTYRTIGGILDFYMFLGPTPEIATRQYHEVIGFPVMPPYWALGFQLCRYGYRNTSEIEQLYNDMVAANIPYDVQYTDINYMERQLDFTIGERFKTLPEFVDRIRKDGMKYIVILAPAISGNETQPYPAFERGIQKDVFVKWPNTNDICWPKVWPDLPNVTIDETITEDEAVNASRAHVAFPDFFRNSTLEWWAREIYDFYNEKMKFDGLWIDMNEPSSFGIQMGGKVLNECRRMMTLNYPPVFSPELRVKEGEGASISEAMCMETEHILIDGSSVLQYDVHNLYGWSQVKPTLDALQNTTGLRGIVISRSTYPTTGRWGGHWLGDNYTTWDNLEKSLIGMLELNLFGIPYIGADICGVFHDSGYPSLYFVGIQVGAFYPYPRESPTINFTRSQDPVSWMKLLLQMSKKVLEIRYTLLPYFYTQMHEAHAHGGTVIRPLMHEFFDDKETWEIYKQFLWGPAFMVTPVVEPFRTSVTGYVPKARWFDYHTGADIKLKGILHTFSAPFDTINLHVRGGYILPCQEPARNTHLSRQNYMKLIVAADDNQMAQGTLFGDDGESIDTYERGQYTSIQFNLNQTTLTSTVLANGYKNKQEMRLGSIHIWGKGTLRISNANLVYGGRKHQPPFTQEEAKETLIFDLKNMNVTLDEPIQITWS

As to `CCCCN1C[C@H](O)[C@@H](O)[C@H](O)[C@H]1CO`, the IC50 in [1] is 15 µM; in [2], under 50 µM; at Alpha-mannosidase 2C1, under 50 µM; in assay [3], 5.3 µM; at Trehalase, 13 µM. A half-maximal response in the assay on MT4 (EC50) required 49 µg/mL (≈ 223 µM). This compound displayed an inhibition constant (Ki) in assay [4] of 3.7 µM.

For `CN1C[C@@H](O)[C@H](O)[C@H]1CO`, the IC50 in [1] is 310 µM; in assay [2], under 50 µM; in assay [5], under 50 µM; at Alpha-mannosidase 2C1, under 50 µM; in assay [3], 180 µM; in [6], 70 µM. In addition, the IC50 in [7] is 100 µM; at Trehalase it was under 50 µM. In addition, in the assay on MT4, the EC50 was over 100 µg/mL. In addition, in assay [4], the affinity, expressed as Ki, was 150 µM.

In the case of `CCCCN1C[C@@H](O)[C@H](O)[C@H]1CO`, the IC50 is 200 µM in assay [1]; under 50 µM in [2]; under 50 µM in assay [5]; under 50 µM against Alpha-mannosidase 2C1; 750 µM in assay [3]; 270 µM in assay [6]. The 50% inhibitory concentration (IC50) in assay [7] is 340 µM; against Trehalase, under 50 µM. Also, the EC50 in the assay on MT4 was over 100 µg/mL. The affinity in [4], expressed as Ki, was 95 µM.

With `CN1C[C@H](O)[C@@H](O)[C@H](O)[C@H]1CO`, the IC50 in assay [1] was 20 µM; in [5], 4.4 µM; at Alpha-mannosidase 2C1, 500 µM; in assay [3], 1.5 µM; in [6], 0.04 µM; in [7] it was 4.4 µM. In addition, half-maximal inhibition on Trehalase (IC50) required 28 µM. In addition, in the assay with MT4, the EC50 is 69 µg/mL (≈ 389 µM). In assay [4], this compound showed a Ki of 5.8 µM.

These data come from ChEMBL document CHEMBL1128713, “N-alkylated nitrogen-in-the-ring sugars: conformational basis of inhibition of glycosidases and HIV-1 replication” (J Med Chem, 1995).
